Laboratory results reported in patent US8916702B2 (priority 2012, dated 2014).

Tested on: HCV pseudoparticles (genotype 1a HCV E1 and E2 envelope, H77C isolate)
Assay: microbe, parasite or virus in culture
Type: cell-based
Settings: Hepatitis C virus, GETYPE1A, Huh-7, 48 h, read-out: Activity (EC50 class), HCV pseudoparticle infection of Huh7 cells, luciferase 2 days after infection; EC50 expressed as class A/B

| SMILES | EC50 [nM] |
| --- | --- |
| CC(C)(CNC(=O)C(=O)NCC1CC1)CNC(=O)c1ccc(Nc2nc(NC3(c4ccc(Cl)cc4)CC3)nc(OCC(F)(F)F)n2)cc1 [Compound 1032] | 0.01 to 10 |

Same assay, conditions: Hepatitis C virus, Huh-7, 48 h, HCV pseudoparticle infection of Huh7 cells, luciferase 2 days after infection; average of duplicates

| SMILES | EC50 [nM] |
| --- | --- |
| COC(=O)[C@H](CNC(=O)C(=O)Nc1ccc(OC)nc1)NC(=O)c1ccc(Nc2nc(NC3(c4ccc(Cl)cc4)CC3)nc(OCC(F)(F)F)n2)cc1 [Compound 1242] | 0.32 |

Same assay, conditions: Hepatitis C virus, Huh-7, 48 h, HCV pseudoparticles (genotype 1a, H77C) in Huh7 cells; average of duplicate; luciferase 2 days after infection

| SMILES | EC50 [nM] |
| --- | --- |
| COC(=O)[C@H](CNC(=O)C(=O)Nc1ccc(-n2cnnn2)cc1)NC(=O)c1ccc(Nc2nc(NC3(c4ccc(Cl)cc4)CC3)nc(OCC(F)(F)F)n2)cc1 [Compound 3191] | 0.82 |
| O=C(NCC(O)CNC(=O)c1ccc(Nc2nc(NC3(c4ccc(Cl)cc4)CC3)nc(OCC(F)(F)F)n2)cc1)C(=O)Nc1cc(F)cc(F)c1 (centres unmarked) [Compound 3461] | 0.027 |
| CC(C)(CNC(=O)C(=O)Nn1cccc1)CNC(=O)c1ccc(Nc2nc(NC3(c4ccc(Cl)cc4)CC3)nc(OCC(F)(F)F)n2)cc1 [Compound 3242] | 0.03 |
| O=C(NCC[C@H](NC(=O)c1ccc(Nc2nc(NC3(c4ccc(Cl)cc4)CC3)nc(OCC(F)(F)F)n2)cc1)C(=O)O)C(=O)Nc1ccc(-n2cnc(Cl)c2Cl)cc1 [Compound 3225] | 17 |
| NC(=O)NCc1ccc(NC(=O)C(=O)NC[C@H](NC(=O)c2ccc(Nc3nc(NC4(c5ccc(Cl)cc5)CC4)nc(OCC(F)(F)F)n3)cc2)C(=O)O)cc1 [Compound 3281] | 1.29 |

Same assay, conditions: Hepatitis C virus, Huh-7, 48 h, HCV pseudoparticles, Huh7 cells, luciferase 2 days after infection; average of duplicates

| SMILES | EC50 [nM] |
| --- | --- |
| CC(C)c1cccc(NC(=O)C(=O)NCC[C@H](NC(=O)c2ccc(Nc3nc(NC4(c5ccc(Cl)cc5)CC4)nc(OCC(F)(F)F)n3)cc2)C(=O)O)c1 [Compound 3627] | 0.1 |

Same assay, conditions: Hepatitis C virus, Huh-7, 48 h, read-out: Activity (EC50 class), HCV pseudoparticle infection of Huh7 cells, luciferase 2 days after infection; EC50 expressed as class A/B

| SMILES | EC50 [nM] |
| --- | --- |
| COC(=O)[C@H](CCNC(=O)C(=O)NCc1ccccc1OC)NC(=O)c1ccc(Nc2nc(NC3(c4ccc(Cl)cc4)CC3)nc(OCC(F)(F)F)n2)cc1 [Compound 1155] | 0.01 to 10 |
| CC(C)OC(=O)c1ccc(-c2ccc(NC(=O)C(=O)NCC(C)(C)CNC(=O)c3ccc(Nc4nc(NC5(c6ccc(Cl)cc6)CC5)nc(OCC(F)(F)F)n4)cc3)cc2)cc1 [Compound 1488] | 0.01 to 10 |
| COC(=O)[C@H](CCNC(=O)C(=O)Nc1ccc(OC)nc1)NC(=O)c1ccc(Nc2nc(NC3(c4ccc(Cl)cc4)CC3)nc(OCC(F)(F)F)n2)cc1 [Compound 1218] | 0.01 to 10 |
| CCC(CC)CNC(=O)C(=O)NCC[C@H](NC(=O)c1ccc(Nc2nc(NC3(c4ccc(Cl)cc4)CC3)nc(OCC(F)(F)F)n2)cc1)C(=O)OC [Compound 1202] | 0.01 to 10 |
| COC(=O)[C@H](CNC(=O)C(=O)NCc1ccc(OC)cc1)NC(=O)c1ccc(Nc2nc(NC3(c4ccc(Cl)cc4)CC3)nc(OCC(F)(F)F)n2)cc1 [Compound 1153] | 0.01 to 10 |
| COC(=O)[C@H](CNC(=O)C(=O)Nc1ccc(OC)nc1)NC(=O)c1ccc(Nc2nc(NC3(c4ccc(Cl)cc4)CC3)nc(OCC(F)(F)F)n2)cc1 [Compound 1242] | 0.01 to 10 |
| Cn1cc(NC(=O)C(=O)NC[C@H](NC(=O)c2ccc(Nc3nc(NC4(c5ccc(Cl)cc5)CC4)nc(OCC(F)(F)F)n3)cc2)C(=O)O)cn1 [Compound 1356] | 0.01 to 10 |
| O=C(NCCc1c[nH]cn1)C(=O)NC[C@H](NC(=O)c1ccc(Nc2nc(NC3(c4ccc(Cl)cc4)CC3)nc(OCC(F)(F)F)n2)cc1)C(=O)O [Compound 1407] | 0.01 to 10 |
| COC(=O)[C@H](CCNC(=O)C(=O)NCC1CCCc2ccccc21)NC(=O)c1ccc(Nc2nc(NC3(c4ccc(Cl)cc4)CC3)nc(OCC(F)(F)F)n2)cc1 (some centres unmarked) [Compound 1322] | 0.01 to 10 |
| CC(C)(CNC(=O)C(=O)Nc1cccc(-c2ccccc2)c1)CNC(=O)c1ccc(Nc2nc(NC3(c4ccc(Cl)cc4)CC3)nc(OCC(F)(F)F)n2)cc1 [Compound 1582] | 0.01 to 10 |
| NC(=O)C(=O)NCCC(NC(=O)c1ccc(Nc2nc(NC3(c4ccc(Cl)cc4)CC3)nc(OCC(F)(F)F)n2)cc1)C(=O)O (stereo in doubt) [Compound 1013, (S)-4-(2-amino-2-oxoacetamido)-2-(4-(4-(1-(4-chlorophenyl)cyclopropylamino)-6-(2,2,2-trifluoroethoxy)-1,3,5-triazin-2-ylamino)benzamido)butanoic acid] | 0.01 to 10 |
| COC(=O)[C@H](CCNC(=O)C(=O)Nc1nccn1C)NC(=O)c1ccc(Nc2nc(NC3(c4ccc(Cl)cc4)CC3)nc(OCC(F)(F)F)n2)cc1 [Compound 1222] | 0.01 to 10 |

Same assay, conditions: Hepatitis C virus, Huh-7, 48 h, read-out: Activity (EC50 class), HCV pseudoparticles, Huh7 cells, luciferase 2 days after infection; average of duplicates

| SMILES | EC50 [nM] |
| --- | --- |
| COc1cccc2sc(NC(=O)C(=O)NCC(C)(C)CNC(=O)c3ccc(Nc4nc(NC5(c6ccc(Cl)cc6)CC5)nc(OCC(F)(F)F)n4)cc3F)nc12 [Compound 3814] | 0.01 to 10 |
| O=C(NC[C@H](NC(=O)c1ccc(Nc2nc(NC3(c4ccc(Cl)cc4)CC3)nc(OCC(F)(F)F)n2)cc1)C(=O)O)C(=O)Nc1ccc(Oc2ccc(Cl)cc2Cl)cc1 [Compound 3753] | 0.01 to 10 |
| O=C(NC[C@H](NC(=O)c1ccc(Nc2nc(NC3(c4ccc(Cl)cc4)CC3)nc(OCC(F)(F)F)n2)cc1)C(=O)Cl)C(=O)Nc1cccc(-n2ccnc2)c1 [Compound 3789] | 0.01 to 10 |
| CC(C)c1cccc(NC(=O)C(=O)NCC[C@H](NC(=O)c2ccc(Nc3nc(NC4(c5ccc(Cl)cc5)CC4)nc(OCC(F)(F)F)n3)cc2)C(=O)O)c1 [Compound 3627] | 0.01 to 10 |
| O=C(NCC[C@H](NC(=O)c1ccc(Nc2nc(NC3(c4ccc(Cl)cc4)CC3)nc(OCC(F)(F)F)n2)cc1)C(=O)O)C(=O)Nc1ccc(N2CCOCC2)nc1 [Compound 3628] | 0.01 to 10 |
| COC(=O)[C@H](CNC(=O)C(=O)Nc1cccc(C(C)(C)C)c1)NC(=O)c1ccc(Nc2nc(NC3(c4ccc(Cl)cc4)CC3)nc(OCC(F)(F)F)n2)cc1 [Compound 3704] | 0.01 to 10 |
| O=C(NC[C@H](NC(=O)c1ccc(Nc2nc(NC3(c4ccc(Cl)cc4)CC3)nc(OCC(F)(F)F)n2)cc1)C(=O)Cl)C(=O)Nc1ccc(Cl)nc1 [Compound 3739] | 0.01 to 10 |
| COC(=O)[C@H](CNC(=O)C(=O)Nc1ccc(OCCN(C)C)nc1)NC(=O)c1ccc(Nc2nc(NC3(c4ccc(Cl)cc4)CC3)nc(OCC(F)(F)F)n2)cc1 [Compound 3735] | 0.01 to 10 |

Same assay, conditions: Hepatitis C virus, Huh-7, read-out: Activity (EC50 class), HCV pseudoparticles (genotype 1a, H77C) in Huh7 cells; EC50 expressed as class A/B

| SMILES | EC50 [nM] |
| --- | --- |
| CC(C)(CNC(=O)C(=O)Nc1ncco1)CNC(=O)c1ccc(Nc2nc(NC3(c4ccc(Cl)cc4)CC3)nc(OCC(F)(F)F)n2)cc1 [Compound 3027] | 0.01 to 10 |
| Cn1cnnc1-c1ccc(NC(=O)C(=O)NCCC(NC(=O)c2ccc(Nc3nc(NC4(c5ccc(Cl)cc5)CC4)nc(OCC(F)(F)F)n3)cc2)C(=O)O)cc1 (centres unmarked) [Compound 3538] | 10 to 1000 |
| CC(C)(CNC(=O)c1ccc(Nc2nc(NC3(c4ccc(Cl)cc4)CC3)nc(OCC(F)(F)F)n2)cc1)NC(=O)C(=O)Nc1ccc(F)cc1F [Compound 3438] | 0.01 to 10 |
| CC(C)(CNC(=O)C(N)=O)CNC(=O)c1ccc(Nc2nc(NC3(c4ccc(F)cc4)CC3)nc(OCC(F)(F)F)n2)cc1 [Compound 3247] | 0.01 to 10 |
| CC(C)(CNC(=O)C(=O)Nc1ccc(Cl)c(F)c1)CNC(=O)c1ccc(Nc2nc(NC3(c4ccc(Cl)cc4)CC3)nc(OCC(F)(F)F)n2)cc1F [Compound 3513] | 0.01 to 10 |
| COC(=O)[C@@H](CCNC(=O)C(=O)Nc1cccc(C(=O)c2ccccc2)c1)NC(=O)c1ccc(Nc2nc(NC3(c4ccc(Cl)cc4)CC3)nc(OCC(F)(F)F)n2)cc1 [Compound 3576] | 0.01 to 10 |
| COC(=O)/C(CCNC(=O)C(=O)Nc1ccc(-n2cccn2)cc1)=N\C(=O)c1ccc(Nc2nc(NC3(c4ccc(Cl)cc4)CC3)nc(OCC(F)(F)F)n2)cc1 [Compound 3136] | 0.01 to 10 |
| COC(=O)[C@H](CCNC(=O)C(=O)Nc1ccc(OC(F)(F)F)cc1)NC(=O)c1ccc(Nc2nc(NC3(c4ccc(Cl)cc4)CC3)nc(OCC(F)(F)F)n2)cc1 [Compound 3331] | 0.01 to 10 |
| COC(=O)[C@H](CNC(=O)C(=O)Nc1ccc(-n2cnnn2)cc1)NC(=O)c1ccc(Nc2nc(NC3(c4ccc(Cl)cc4)CC3)nc(OCC(F)(F)F)n2)cc1 [Compound 3191] | 0.01 to 10 |
| O=C(NCC(O)CNC(=O)c1ccc(Nc2nc(NC3(c4ccc(Cl)cc4)CC3)nc(OCC(F)(F)F)n2)cc1)C(=O)Nc1cc(F)cc(F)c1 (centres unmarked) [Compound 3461] | 0.01 to 10 |
| CC(C)(CNC(=O)C(=O)Nc1ccc(C[Si](C)(C)C)cc1)CNC(=O)c1ccc(Nc2nc(NC3(c4ccc(Cl)cc4)CC3)nc(OCC(F)(F)F)n2)cc1 [Compound 3054] | 0.01 to 10 |
| COc1cccc(-c2ccccc2NC(=O)C(=O)NCC(C)(C)CNC(=O)c2ccc(Nc3nc(NC4(c5ccc(Cl)cc5)CC4)nc(OCC(F)(F)F)n3)cc2)c1 [Compound 3049] | 0.01 to 10 |
| COC(=O)[C@H](CNC(=O)C(=O)Nc1ccc(-c2csc(N3CCOCC3)n2)cc1)NC(=O)c1ccc(Nc2nc(NC3(c4ccc(Cl)cc4)CC3)nc(OCC(F)(F)F)n2)cc1 [Compound 3201] | 0.01 to 10 |
| CC(C)(CNC(=O)C(=O)N1CCOCC1)CNC(=O)c1ccc(Nc2nc(NC3(c4ccc(Cl)cc4)CC3)nc(OCC(F)(F)F)n2)cc1 [Compound 3381] | 0.01 to 10 |
| CC(C)(CNC(=O)C(=O)Nn1cccc1)CNC(=O)c1ccc(Nc2nc(NC3(c4ccc(Cl)cc4)CC3)nc(OCC(F)(F)F)n2)cc1 [Compound 3242] | 0.01 to 10 |
| CC(C)(CNC(=O)c1ccc(Nc2nc(NC3(c4ccc(Cl)cc4)CC3)nc(OCC(F)(F)F)n2)cc1)NC(=O)C(=O)Nc1nccs1 [Compound 3437] | 0.01 to 10 |
| CN(CCCN(C)C(=O)c1ccc(Nc2nc(NC3(c4ccc(Cl)cc4)CC3)nc(OCC(F)(F)F)n2)cc1)C(=O)C(=O)NCc1ccc(F)cc1 [Compound 3413] | 10 to 1000 |
| CC(CNC(=O)C(=O)Nc1ccc(F)cc1)CNC(=O)c1ccc(Nc2nc(NC3(c4ccc(Cl)cc4)CC3)nc(OCC(F)(F)F)n2)cc1 (centres unmarked) [Compound 3335] | 0.01 to 10 |
| Cc1cc(F)ccc1NC(=O)C(=O)NCC(C)(C)CNC(=O)c1ccc(Nc2nc(NC3(c4ccc(Cl)cc4)CC3)nc(OCC(F)(F)F)n2)cc1 [Compound 3061] | 0.01 to 10 |
| O=C(NCC[C@H](NC(=O)c1ccc(Nc2nc(NC3(c4ccc(Cl)cc4)CC3)nc(OCC(F)(F)F)n2)cc1)C(=O)O)C(=O)Nc1ccc(Oc2ccncc2)cc1 [Compound 3544] | 10 to 1000 |
| O=C(NC/C(=N/C(=O)c1ccc(Nc2nc(NC3(c4ccc(Cl)cc4)CC3)nc(OCC(F)(F)F)n2)cc1)C(=O)O)C(=O)Nc1ccc(C(=O)c2ccccc2)cc1 [Compound 3152] | 0.01 to 10 |
| CC(CNC(=O)C(=O)N1CCc2ccccc2C1)CNC(=O)c1ccc(Nc2nc(NC3(c4ccc(Cl)cc4)CC3)nc(OCC(F)(F)F)n2)cc1 (centres unmarked) [Compound 3471] | 0.01 to 10 |
| O=C(NCC[C@H](NC(=O)c1ccc(Nc2nc(NC3(c4ccc(Cl)cc4)CC3)nc(OCC(F)(F)F)n2)cc1)C(=O)O)C(=O)Nc1ccc(-n2cnc(Cl)c2Cl)cc1 [Compound 3225] | 10 to 1000 |
| O=C(NCc1ccc(F)cc1)C(=O)N(CCO)CCCNC(=O)c1ccc(Nc2nc(NC3(c4ccc(Cl)cc4)CC3)nc(OCC(F)(F)F)n2)cc1 [Compound 3502] | 0.01 to 10 |
| NC(=O)NCc1ccc(NC(=O)C(=O)NC[C@H](NC(=O)c2ccc(Nc3nc(NC4(c5ccc(Cl)cc5)CC4)nc(OCC(F)(F)F)n3)cc2)C(=O)O)cc1 [Compound 3281] | 0.01 to 10 |
